Columns and labels:
[1] = system: chickweed scarlet pimpernel (Anagallis arvensis); test: Example 12 FeHEDTA field test, chickweed scarlet pimpernel; type: in vivo; conditions: for Survival of Chickweed Plants (%): day 7/day 0
Protocol: (§1) This test evaluated FeHEDTA with 0.15% and 0.2% Fe for controlling the chickweed scarlet pimpernel (Anagallis arvensis) and dandelion (Taraxacum officinale). The solution contained 1.3 times the molar amount of chelating agent as iron. Field areas of well established chickweed and dandelion (0.5 m^2) were sprayed at a rate of 100 ml/m^2.

[2] = system: dandelion (Taraxacum officinale); test: Example 12 FeHEDTA field test, dandelion; type: in vivo; conditions: for Survival of Dandelion Plants (%): day 7/day 0
Protocol: as §1

[3] = system: dandelions; test: Example 2 field test of FeEDDS and FeHEDTA at pH 3 and 7, dandelion; type: in vivo, Taraxacum officinale
Protocol: (§2) The following non-limiting examples serve to further describe the invention. Unless otherwise specified, all of the iron solutions were made using the same molar concentration of iron ion as chelating agent. All of the outside tests were done on areas of mixed grass and dandelions that were at least 2 months old. For the greenhouse tests, dandelions were grown in a commercial greenhouse mix, using supplemental lighting and heating. Each plant was grown in a 2¼ inch pot to a minimum diameter of 20 cm. All of the solutions were sprayed onto the plants at a rate of 100 ml/m^2. The ferrous sulfate formulations that were used in examples 1, 2, 8 and 9 contained 1% iron (180 mM), 18 mM EDTA, 1% citric acid and 0.5% urea. In all of the examples, the amount of iron is identified in brackets as the percent iron on a weight basis.
(§3) All plant damage was assessed using a qualitative rating scale from 0 to 9.
The FeEDDS and FeHEDTA solutions contained 0.2% Fe^+3 (35.8 mM). The ferrous sulfate contained 1% Fe^+2 (179.1 mM). The solutions were sprayed at a rate of 0.1 L/m^2 onto 2 plots of 0.5 m^2 of mixed grass and dandelions. Observations were made 4 days after spraying.

[4] = system: grass; test: Example 13 field test, grass; type: in vivo
Protocol: Killex® (Green Cross, Ontario, Canada) is a commonly used selective lawn herbicide and was included in several field tests as a standard. Killex contains 2,4-D (9.5%), mecoprop (5%) and dicamba (0.9%). The product was diluted 6 ml into 1 L of water solution and applied at rate of 200 ml/m^2, as per label instructions.
This test evaluated FeEDDS (0.4% Fe^+3) and FeHEDTA (0.2% Fe^+3) for controlling the weed hairy cat's ear (Hypochoeris radicata), also known as “false dandelion”, grown in areas of mixed grass and Hypochoeris. The iron solutions were sprayed at a rate of 100 ml/m^2 to 1.0 m^2 plots. The iron treatments were resprayed after 7 and 14 days. Killex (Solaris ON, Canada) was diluted and applied once as per label instructions of 6 ml /L applied at 200 ml/m^2.

[5] = system: dandelions; test: Example 1 field test of iron chelates, dandelion damage; type: in vivo, Taraxacum officinale; conditions: sprayed once at 100 ml/m^2, 5 days after spraying
Protocol: as §2, §3
All of the iron chelates were sprayed once at 0.2% Fe^+3 (35.8 mM), at a volume of 100 ml/m^2 onto 0.5 m^2 areas of mixed grass and dandelions. The spraying of the test was followed by 2 days of rain-free weather. Observations were made 5 days after spraying.

[6] = system: dandelions; test: Example 10 FeHEDTA at 0.1% and 0.2% Fe on potted dandelions; type: in vivo, Taraxacum officinale
Protocol: This test investigated using 0.1% (17.9 mM) and 0.2% (35.8 mM) iron, as FeHEDTA, to kill potted dandelions. The solutions contained 10% excess chelating agent.
Small (12 cm diameter) to medium (20 cm diameter) sized, greenhouse-grown dandelions were used. These sizes of dandelions are typically found in lawns. The plants were re-sprayed 7 days after the first spray.

[7] = system: turf bentgrass (Agrostis sp.); test: Example 11 field test, blackening of bentgrass leaf tips; type: in vivo
Protocol: The product was diluted 6 ml into 1 L of water solution and applied at rate of 200 ml/m^2, as per label instructions.
This test investigated the effect of FeHEDTA and a mixture of FeEDDS and FeMGDA on daisy (Bellis perennis), dandelion (Taraxacum officinale) and a turf bentgrass (Agrostis sp.). The chelating agents were used at one and a half times the molar amount of iron. […] The commercially prepared FeHEDTA product from the Monterey Chemical Company (CA, USA) was used as a standard. […] The solutions were made from NaEDDS (Octaquest E30, Octel) and NaMGDA (Trilon M liquid, BASF, Germany). Ammonium sulfate was added at a concentration of 1%. Killex (Solaris ON, Canada) was diluted and applied as per label instructions of 6 ml/L applied at 200 ml/m^2.
The daisy (0.25 m^2) and dandelion (0.5 m^2) test plots were in different areas of the bentgrass field. The dandelions were large, averaging 30 cm in diameter. The daisy patches were between 10 and 20 cm in diameter. The plants were sprayed weekly 4 times.

[8] = 7 days after spraying, listed as FeHEDTA (0.15% Fe)
[9] = 7 days after spraying, listed as FeHEDTA (0.20% Fe)
[10] = day 0, listed as FeHEDTA (0.15% Fe)
[11] = day 0, listed as FeHEDTA (0.20% Fe)

## O=C([O-])CN(CCO)CCN(CC(=O)[O-])CC(=O)[O-].[Fe+3] [FeHEDTA]
[1]; [8]
  Chickweed Plants (#/0.5 m^2): 8 #/0.5 m^2
[1]; [9]
  Chickweed Plants (#/0.5 m^2): 4 #/0.5 m^2
[1]; Example 12, text
  numbers of chickweed plants, in words: significantly reduced
[1]; [10]
  Chickweed Plants (#/0.5 m^2): 15 #/0.5 m^2
[1]; [11]
  Chickweed Plants (#/0.5 m^2): 25 #/0.5 m^2
[1]; listed as FeHEDTA (0.15% Fe)
  Survival of Chickweed Plants (%): 53%
[1]; listed as FeHEDTA (0.20% Fe)
  Survival of Chickweed Plants (%): 16%
[2]; [8]
  Dandelion Plants (#/0.5 m^2): 19 #/0.5 m^2
[2]; [9]
  Dandelion Plants (#/0.5 m^2): 24 #/0.5 m^2
[2]; Example 12, text
  numbers of dandelions, in words: significantly reduced
[2]; [10]
  Dandelion Plants (#/0.5 m^2): 57 #/0.5 m^2
[2]; [11]
  Dandelion Plants (#/0.5 m^2): 84 #/0.5 m^2
[2]; listed as FeHEDTA (0.15% Fe)
  Survival of Dandelion Plants (%): 33%
[2]; listed as FeHEDTA (0.20% Fe)
  Survival of Dandelion Plants (%): 29%
[3]; solution pH 2.6-3.0, 0.1 L/m^2, 4 days after spraying
  Dandelion Damage (0 to 9): 7.0 0 to 9
[3]; solution pH 7.0-7.1, 0.1 L/m^2, 4 days after spraying
  Dandelion Damage (0 to 9): 7.5 0 to 9
[4]; day 0
  Area Covered by Hairy Grass (%): 15%
  Relative Grass Area (Start = 100%): 100%
[4]; day 6
  Area Covered by Hairy Grass (%): 47%
  Relative Grass Area (Start = 100%): 313%
[4]; day 8
  Area Covered by Hairy Grass (%): 40%
  Relative Grass Area (Start = 100%): 267%
[4]; day 15
  Area Covered by Hairy Grass (%): 50%
  Relative Grass Area (Start = 100%): 333%
[4]; day 18
  Area Covered by Hairy Grass (%): 46%
  Relative Grass Area (Start = 100%): 307%
[5]
  Dandelion Damage (0 to 9): 8.9 0 to 9
[6]; 12 to 20 cm diameter dandelions
  susceptibility of dandelions, in words: very susceptible
[6]; dandelion diameter 12 cm, 7 + 6 days (re-sprayed after 7 days)
  Dead Dandelions (#/10): 10 #/10
[6]; dandelion diameter 12 cm, 6 days after spraying, listed as FeHEDTA (0.1% Fe)
  Dead Dandelions (#/10): 2 #/10
[6]; dandelion diameter 12 cm, 6 days after spraying, listed as FeHEDTA (0.2% Fe)
  Dead Dandelions (#/10): 8 #/10
[6]; dandelion diameter 16 cm, 7 + 6 days, listed as FeHEDTA (0.1% Fe)
  Dead Dandelions (#/10): 3 #/10
[6]; dandelion diameter 16 cm, 7 + 6 days, listed as FeHEDTA (0.2% Fe)
  Dead Dandelions (#/10): 10 #/10
[6]; dandelion diameter 16 cm, 6 days after spraying, listed as FeHEDTA (0.1% Fe)
  Dead Dandelions (#/10): 1 #/10
[6]; dandelion diameter 16 cm, 6 days after spraying, listed as FeHEDTA (0.2% Fe)
  Dead Dandelions (#/10): 3 #/10
[6]; dandelion diameter 20 cm, 7 + 6 days, listed as FeHEDTA (0.1% Fe)
  Dead Dandelions (#/10): 3 #/10
[6]; dandelion diameter 20 cm, 7 + 6 days, listed as FeHEDTA (0.2% Fe)
  Dead Dandelions (#/10): 8 #/10
[6]; dandelion diameter 20 cm, 6 days after spraying, listed as FeHEDTA (0.1% Fe)
  Dead Dandelions (#/10): 0 #/10
[6]; dandelion diameter 20 cm, 6 days after spraying, listed as FeHEDTA (0.2% Fe)
  Dead Dandelions (#/10): 1 #/10
[7]; day 1
  Blackening of Bentgrass (Agrostis) Leaf Tips (0 to 9): 0
[7]; day 6
  Blackening of Bentgrass (Agrostis) Leaf Tips (0 to 9): 0
[7]; day 9
  Blackening of Bentgrass (Agrostis) Leaf Tips (0 to 9): 0
[7]; day 16
  Blackening of Bentgrass (Agrostis) Leaf Tips (0 to 9): 2
[7]; day 21
  Blackening of Bentgrass (Agrostis) Leaf Tips (0 to 9): 0.5 0 to 9
[7]; day 23
  Blackening of Bentgrass (Agrostis) Leaf Tips (0 to 9): 0
[7]; day 30
  Blackening of Bentgrass (Agrostis) Leaf Tips (0 to 9): 0
